Key:
[1] = tested on: human fluorescent lung organoid (hFLO); test: Bleomycin-induced fibrosis in hFLO with fasudil antifibrotic trial (histochemistry, immunohistochemistry, live confocal imaging); type: cell-based; settings: for lumen area: bleomycin 20 μg mL−1 for 3 days from day 7, then 10 μM fasudil for 4 days, day 14; for collagen deposition (Masson staining) / pro-fibrotic expression (αSMA, fibronectin, PDGFRα; H-DAB): bleomycin 20 μg mL−1 for 3 days, then 10 μM fasudil for 4 days
Description: Cell aggregates were grown as described above for 7 days, after which the cell aggregates were treated with 20 μg mL 1 bleomycin (13877, Cayman Chemical Company, MI, USA, stock solution diluted in either PBS or DMSO). Media was changed after 3 days of culture with bleomycin (i.e., at day 10). At day 10, the organoids were weaned off the bleomycin insult and then treated with either 10 μM fasudil (B3523, ApexBio, TX, USA) or with DMSO (control, vehicle used for fasudil). The cultures were kept in treatment media for 4 more days with media changing every two days. Cell aggregates and media were collected and fixed as described above.
Histologically stained samples were imaged and processed with ImageJ software. First, images were converted to an 8-bit greyscale, after which a threshold was applied. The image was then processed five times iteratively with the dilate function to converging boundary cells. […] The “count particles” function was used to measure lumen characteristics. Data was processed in Microsoft Excel, lumen under the size of 200 μm2 were excluded in all analysis except the calculations of total lumen area and lumen percent arca.
The ratios of collagen to tissue in organoids were determined by analyzing images of Masson-Trichrome stained sections. These images were separated into red, blue, and green components using ImageJ using color deconvolution function. For the Masson staining, areas of the blue and red image channels were determined by thresholding and collagen deposition was determined as the ratio of blue area to red area (collagen to tissue). Intensity histograms were created using the ImageJ histogram function on the selected red area, and average pixel intensity was calculated from the histogram output in Microsoft Excel. For H-DAB, the target protein is the brown channel and the hematoxylin is the blue-purple channel.
There is a critical need for viable organotypic models for the human lung to model diseases including pulmonary fibrosis (PF). In order to fill this need, we induced fibrosis using bleomycin in our hFLO model. Bleomycin-induced PF is an extensively used animal-based model for fibrosis, despite significant cellular and molecular differences between mouse and human lungs. Moreover, therapeutics against PF are limited due to lack of organotypic lung models adapted for drug testing and screening. […] This therapy, however, has not yet been validated in a human lung model. Here, we grew hFLO for 7 days and induced fibrosis using 20 μg mL−1 bleomycin for 3 days, after which aggregates were treated with 10 μM fasudil, a ROCK inhibitor for 4 days to observe possible changes in fibrosis (FIG. 5A). […] In PF, there is an observed alveolar and bronchiolar epithelial cell death and fibroblast abundance. We observed that with bleomycin induction, there was a decrease in the epithelial A549 with an increase in fibroblast HFL1 population ([…]).

[2] = tested on: secreted factors from hFLO aggregates; test: Cytokine array of media from hFLO treatment groups; type: cell-based, human; settings: media at day 14
Description: The organoid media from the three treatment groups were collected at day 14. The levels of cytokines secreted to the media were immediately evaluated using the Human Cytokine Array C1000 (AAH-CYT-1000-8, Ray Biotech, GA, USA) with minor modifications. Briefly, the membranes were blocked at room temperature for 30 minutes using the blocking buffer. The media from the organoids were transferred onto the membranes and incubated with gentle rocking overnight at 4° C. After washing, the membranes were incubated with the biotinylated antibody cocktail overnight at 4° C. After further washes, the membranes were probed with Streptavidin-CF680R (29072, Biotium, CA, USA 1:1000) for 1 hour at RT. The membranes were imaged using an Odyssey CLx imager (LI-COR, Cambridge, UK) at high resolution and a wavelength of 700 nm. The exported images of the membranes were quantified using gel analysis plugin on FIJI distribution of ImageJ (open source) under the GNU General Public License.
To further confirm the fibrosis in hFLO-bleomycin fibrotic model and the anti-fibrotic effects of fasudil, we collected culture media from the aggregates and performed a cytokine array using 120 common inflammatory factors.

[3] = tested on: A549, EAhy and HFL1 triculture aggregates; test: 3D triculture suspension culture with soluble ECM (self-patterning, growth, fibronectin); type: cell-based, human; settings: 100 μg mL−1 soluble ECM; day 14
Description: To calculate the seeding ratios for each cell line, literature search led us to lung alveolar cell ratios to be around 24% epithelial, 30% endothelial, and 37% interstitial. By this, we simplified the seeding ratio to be roughly 1:2:2 (A549 epithelial: EAhy endothelial: HFL1 fibroblast). For suspension-based cultures, a seeding ratio of 1.0×104 to 1.0×10^5 total cells per aggregate was used and was divided to cach of the cell line using the ratio above. 100-200 μL of mixed cell suspension in 3D media or ECM supplemented 3D media were seeded into cach well of the 96-well ULA plate. […]
Triculture cell aggregates were grown for 14 days using either traditional force aggregation (FA) or as supplemented with 300 μg mL^−1 Matrigel®. […] Cell aggregate sections were then selected using the freeform selection tool and measured for area. […]
We then engineered a 3D triculture to model the lung alveolus and the morphological changes accompanying soluble ECM concentration. […] Cell seeding ratios were followed based on endogenous human lung cell composition which we determined to be roughly 1:2:2 (epithelial: interstitial: vascular) (Table S1).

[4] = of 120 common inflammatory factors
[5] = bleomycin 20 μg mL−1, live 3D confocal volumetric analysis

Compound: O=S(=O)(c1cccc2cnccc12)N1CCCNCC1 [fasudil]
- lumen area [1]: rescued
- collagen deposition (Masson staining) [1]: decreased intensity
- pro-fibrotic expression (αSMA, fibronectin, PDGFRα; H-DAB) [1]: lowered
- secretion of pro-angiogenic factors including FGF2 and VEGFA [2]: decreased
- secretion of pro-inflammatory factors (CX3CL1, AREG, CCL3, IL4, IL2, AXL, EGF, IL6 among others) [2]: significantly decreased
- number of factors significantly changed (Fasudil vs Bleomycin) [2, 4]: 56 factors
- number of factors significantly changed between control and fasudil treatment [2, 4]: 36 factors

Compound: bleomycin
- epithelial A549 population [1, 5]: decrease
- fibroblast HFL1 population [1, 5]: increase
- lumen area [1]: decreased lumen area
- collagen deposition (Masson staining) [1]: increased collagen deposition
- pro-fibrotic expression (αSMA, fibronectin, PDGFRα; H-DAB) [1]: increased
- secretion of pro-angiogenic factors including FGF2 and VEGFA [2]: increased secretion
- secretion of pro-inflammatory factors (CX3CL1, AREG, CCL3, IL4, IL2, AXL, EGF, IL6 among others) [2]: increase
- number of factors significantly increased (Control vs Bleomycin) [2, 4]: 68 factors

Compound: collagen I: rat tail collagen I (Sigma-Aldrich), used as soluble ECM supplement
- aggregate structure (H&E) [3]: predominantly compact cell clusters

Source: patent publication US20240401000A1, “SUSPENSION-BASED 3D CULTURE METHOD FOR ORGANOIDS” (BRIGHAM YOUNG UNIVERSITY, priority 2021, published 2024)
